Reference: patent US9877997B2, “Methods and compositions for regulating SRCA2A expression levels in myocardial infarction” (Stealth BioTherapeutics Corp., priority 2013, dated 2018)

Tests used:
[1] = tested on: plasma membrane of several mammalian cell types; settings: energy-independent manner; cited from earlier work
[2] = tested on: Rats with permanent coronary artery ligation; experiment: Post-infarction remodeling in a rodent model of heart failure, LV chamber volume (Example 3); type: in vivo, rat
Description: Rats underwent the permanent coronary artery ligation, as described in Example 2. The rats were split into two groups and treated for six weeks with either 3 mg/kg/day of D-Arg-2′6′-Dmt-Lys-Phe-NH2 or 0.9% NaCl (saline) continuously through mini-osmotic pumps, which were implanted into each animal.
After the six week period, LV function was assessed with echocardiography. Additionally, the hearts were excised and the heart tissue analyzed for LV chamber volume using tetrazolium salt staining Heart tissue in the border zone and remote areas around the infarct were also harvested and underwent gene array analysis to determine the expression levels of genes involved in mitochondrial metabolism.

[3] = tested on: Rats with permanent left coronary artery occlusion; experiment: Hemodynamics: heart rate, blood pressure and LV pressures by Millar catheter (Example 2); type: in vivo, rat; settings: 6 weeks after treatment
Description: (§1) Rats were anesthetized, ventilated, and a thoracotomy performed in the left 4th intercostal space. Temperature was maintained at 36° C. by placing the rats on a heating pad during the procedure. The pericardium was excised and the proximal left coronary artery isolated and permanently occluded with a suture. Coronary artery occlusion was confirmed by cyanosis and akinesis of the anterior wall of the ventricle. The chest was closed, air evacuated, and the rats allowed to recover. Analgesia was administered per the veterinarian. An echocardiogram was obtained at approximately 15 minutes post coronary artery occlusion. At 2 hours rats were randomized to receive chronic daily D-Arg-2′6′-Dmt-Lys-Phe-NH2 (delivered subcutaneously by an Alzet Osmotic Pump—3 mg/kg/day) or water. The Osmotic Pump delivered approximately 0.15 μl/hr for 6 weeks (model 2006; 200 μl). The Alzat pump was implanted subcutaneously between the shoulder blades while the rat was still anesthetized. After 6 weeks the rats were re-anesthetized, weighed, and a second echocardiogram was obtained under anesthesia. Cut downs were performed to isolate the carotid artery and jugular vein. Heart rate and blood pressure were measured. A Millar catheter was inserted into the left ventricle and LV systolic pressure, LV end diastolic pressure, +dP/dt, and −dP/dt were measured. A left ventriculogram was performed using IV fluoroscopic contrast in order to determine LV stroke volume and ejection fraction. Under deep anesthesia, the heart was excised, weighed, and pressure fixed at 11 mmHg with formalin. The lungs were also excised and weighed. Postmortem LV volume was measured by filling the LV cavity with fluid and measuring the total fluid. The hearts were sliced into four transverse sections and histologic slides were prepared and stained with hematoxylin and eosin and with picrosirius red, which stains collagen. Quantitative histologic analysis included: total circumference, scar circumference, non-infarcted wall circumference, total LV area, total LV cavity area, LV wall thickness (at several points), non-infarcted wall thickness; myocardial infarct expansion index.
(§2) All data is reported as means±SEM. Values between groups were compared by Student t-test. P is significant at p<0.05 level.

[4] = tested on: SERCA2a expression; experiment: SERCA2a expression by qRT-PCR in heart samples post-myocardial infarction (Example 1); type: in vivo; settings: rat, 6 weeks, normalized to β-actin, relative to sham
Description: Rats were anesthetized, ventilated, and a thoracotomy performed in the left 4th intercostal space. Temperature was maintained at 36° C. by placing the rats on a heating pad during the procedure. The pericardium was excised and the proximal left coronary artery isolated and permanently occluded with a suture. Coronary artery occlusion was confirmed by cyanosis and akinesis of the anterior wall of the ventricle. The chest was closed, air evacuated, and the rats allowed to recover. Analgesia was administered per the veterinarian. An echocardiogram was obtained at approximately 15 minutes post coronary artery occlusion. At 2 hours rats were randomized to receive chronic daily D-Arg-2′6′-Dmt-Lys-Phe-NH2 (delivered subcutaneously by an Alzet Osmotic Pump—3 mg/kg/day, n=7), water (n=7), sham operation (normal non-infarct hearts, n=7). The Osmotic Pump delivered approximately 0.15 μl/hr for 6 weeks (model 2006; 200 μl). The Alzat pump was implanted subcutaneously between the shoulder blades while the rat was still anesthetized.
After 6 weeks, heart samples were collected from shams, border zone cells of water-treated infarcted hearts (MI/BZ) and D-Arg-2′6′-Dmt-Lys-Phe-NH2-treated hearts (MI/BZ+AP), and remote noninfarcted area cells of water-treated hearts (MI/R) and of D-Arg-2′6′-Dmt-Lys-Phe-NH2-treated hearts (MI/R+AP). […]

[5] = tested on: Rats with permanent left coronary artery occlusion; experiment: LV fractional shortening by echocardiography, permanent coronary occlusion (Example 2); type: in vivo, rat
Description: as §1, with “The hearts were sliced into four transverse sections and histologic slides were prepared and stained with hematoxylin and eosin and with picrosirius red, which stains collagen.” left out, “index. […]” for “index.”

[6] = tested on: Rats with permanent left coronary artery occlusion; experiment: Quantitative histologic analysis of scar circumference, scar thickness and expansion index (Example 2); type: in vivo, rat; settings: 6 weeks after treatment
Description: as §1, §2

[7] = tested on: Rats with permanent left coronary artery occlusion; experiment: Heart weight and post-mortem LV volume (Example 2); type: in vivo, rat; settings: 6 weeks after treatment
Description: as §1, with “The hearts were sliced into four transverse sections and histologic slides were prepared and stained with hematoxylin and eosin and with picrosirius red, which stains collagen.” left out, “index. […]” for “index.”

[8] = tested on: Rats with permanent left coronary artery occlusion; experiment: LV stroke volume and ejection fraction by LV ventriculography (Example 2); type: in vivo, rat; settings: 6 weeks after treatment, 3 mg/kg/day s.c.
Description: (§3) Rats were anesthetized, ventilated, and a thoracotomy performed in the left 4th intercostal space. Temperature was maintained at 36° C. by placing the rats on a heating pad during the procedure. The pericardium was excised and the proximal left coronary artery isolated and permanently occluded with a suture. Coronary artery occlusion was confirmed by cyanosis and akinesis of the anterior wall of the ventricle. The chest was closed, air evacuated, and the rats allowed to recover. Analgesia was administered per the veterinarian. An echocardiogram was obtained at approximately 15 minutes post coronary artery occlusion. At 2 hours rats were randomized to receive chronic daily D-Arg-2′6′-Dmt-Lys-Phe-NH2 (delivered subcutaneously by an Alzet Osmotic Pump—3 mg/kg/day) or water. […] Heart rate and blood pressure were measured. A Millar catheter was inserted into the left ventricle and LV systolic pressure, LV end diastolic pressure, +dP/dt, and −dP/dt were measured. […] Postmortem LV volume was measured by filling the LV cavity with fluid and measuring the total fluid. […] Quantitative histologic analysis included: total circumference, scar circumference, non-infarcted wall circumference, total LV area, total LV cavity area, LV wall thickness (at several points), non-infarcted wall thickness; myocardial infarct expansion index. […]

[9] = tested on: Rats with permanent left coronary artery occlusion; experiment: Survival during 6 weeks treatment after coronary occlusion (Example 2); type: in vivo, rat; settings: 6 weeks treatment after randomization at 2 hours post occlusion
Description: as §3

## 2′,6′-Dmt-D-Arg-Phe-Lys-NH2
[1]
  plasma membrane penetration: readily penetrates the plasma membrane

## D-Arg-2′6′-Dmt-Lys-Phe-NH2
[2]; 3 mg/kg/day for six weeks by mini-osmotic pump versus 0.9% NaCl, FIG. 6
  LV volume/heart weight: decrease in LV volume/heart weight
[2]; 3 mg/kg/day for six weeks by mini-osmotic pump, post-infarction model of heart failure
  LV dilation: reduced LV dilation
[3]
  minimum left ventricular pressure: 0.64±0.55 mmHg
[3]; 3 mg/kg/day s.c.
  Diastolic BP: 85 ± 2 mmHg
  Heart Rate: 209 ± 5
  Mean BP: 94 ± 3 mmHg
  Systolic BP: 114 ± 4 mmHg
[3]; left ventricle
  +dp/dt: 5668
  Ped (end diastolic left ventricular pressure): 5.63
  Pes (end systolic left ventricular pressure): 105
  Pmin (minimum left ventricular pressure): 0.64 +
  Tau Glantz: 24.6
  Tau Weiss: 14.6
  −dp/dt: 3639
[4]; 3 mg/kg/day s.c. osmotic pump from 2 hours post occlusion
  SERCA2a expression, border zone cells (MI/BZ+AP): restored SERCA2a expression to near normal levels
[4]; 3 mg/kg/day s.c. osmotic pump
  SERCA2a expression, nonischemic remote area (MI/R): no significant differences
[5]; 6 weeks after treatment, 3 mg/kg/day s.c. osmotic pump from 2 hours post occlusion
  left ventricular fractional shortening (LVFS): 28.8±1.7%
[5]; 15 minutes after coronary occlusion (before treatment)
  left ventricular fractional shortening (LVFS): 45±1.8
[5]; baseline before coronary occlusion (before treatment)
  left ventricular fractional shortening (LVFS): 44.5±1.1%
[6]
  Scar circumference (%), expressed as percentage of total LV circumference: 39.7±2.2%
  Scar thickness: 0.504 ± 0.039 mm
  Septum thickness: 1.45 ± 0.03 mm
[6]; histological analysis
  LV non-scar circumference: 15.4±0.4 mm
  scar circumference: 9.9±0.6 mm
[6]; [LV cavity area/Total LV area×Septum thickness/Scar thickness]
  Expansion index: 1.67 ± 0.12
[7]; 3 mg/kg/day s.c.
  Heart weight: 0.724 ± 0.011 g
[7]; heart pressure fixed at 11 mmHg
  LV volume (post-mortem): 0.519 ± 0.019 mL
[7]; post-mortem LV volume standardized by heart weight
  LV volume/heart weight: 0.72±0.02
[8]
  LV ejection fraction: 55.3±1.4%
  LV stroke volume: 0.257 ± 0.008 mL
[9]
  deaths during treatment: no rats died
